Experimental data from PubChem BioAssay AID2060624 (Molecular Pharmacology Branch, DTP, NCI, 2025).

System: 217524-143-R1-J4-PDC spheroids with HUVEC/MSC, viability
Test: Anticancer human tumor 217524-143-R1-J4-PDC patient-derived pancreatic carcinoma cell line growth inhibition [CLK]
Conditions: for IC50: curve of first compound; for viability, T/C: stronger effect = lower value
How it was run: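 Patient-derived tumor cells grown as complex spheroids with HUVEC endothelial cells and mesenchymal stem cells, treated with drug combinations. Concentrations descend in half-log steps from near clinical Cmax, or from 10 microM if Cmax unknown.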

[1] = second compound 0.0316 µM, first compound 0.0316 µM
[2] = second compound 0.0316 µM, first compound 0.1 µM
[3] = second compound 0.0316 µM, first compound 0.316 µM
[4] = second compound 0.0316 µM, first compound 1 µM
[5] = second compound 0.0316 µM, first compound 3.16 µM
[6] = second compound 0.0316 µM, first compound 10 µM
[7] = second compound 0.1 µM, first compound 0.0316 µM
[8] = second compound 0.1 µM, first compound 0.1 µM
[9] = second compound 0.1 µM, first compound 0.316 µM
[10] = second compound 0.1 µM, first compound 1 µM
[11] = second compound 0.1 µM, first compound 3.16 µM
[12] = second compound 0.1 µM, first compound 10 µM
[13] = second compound 0.316 µM, first compound 0.0316 µM
[14] = second compound 0.316 µM, first compound 0.1 µM
[15] = second compound 0.316 µM, first compound 0.316 µM
[16] = second compound 0.316 µM, first compound 1 µM
[17] = second compound 0.316 µM, first compound 3.16 µM
[18] = second compound 0.316 µM, first compound 10 µM
[19] = second compound 1 µM, first compound 0.0316 µM
[20] = second compound 1 µM, first compound 0.1 µM
[21] = second compound 1 µM, first compound 0.316 µM
[22] = second compound 1 µM, first compound 1 µM
[23] = second compound 1 µM, first compound 3.16 µM
[24] = second compound 1 µM, first compound 10 µM
[25] = second compound 3.16 µM, first compound 0.0316 µM
[26] = second compound 3.16 µM, first compound 0.1 µM
[27] = second compound 3.16 µM, first compound 0.316 µM
[28] = second compound 3.16 µM, first compound 1 µM
[29] = second compound 3.16 µM, first compound 3.16 µM
[30] = second compound 3.16 µM, first compound 10 µM
[31] = second compound 10 µM, first compound 0.0316 µM
[32] = second compound 10 µM, first compound 0.1 µM
[33] = second compound 10 µM, first compound 0.316 µM
[34] = second compound 10 µM, first compound 1 µM
[35] = second compound 10 µM, first compound 3.16 µM
[36] = second compound 10 µM, first compound 10 µM
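Further: spheroids exposed to agents for seven days before reading.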
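Wherever viability, T/C is given: 100% = DMSO vehicle control viability.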

CC1COCCN1c1cc(C2(S(C)(=N)=O)CC2)nc(-c2ccnc3[nH]ccc23)n1 (centres undefined) + CN1CCN(c2cc(C(=O)Nc3cc4cc(-c5cnn(C)c5)ccc4cn3)ccn2)CC1
IC50 (second compound 0.0316 µM): 1.43 µM
IC50 (second compound 0.1 µM): 0.342 µM
IC50 (second compound 0.316 µM): < 0.0316 µM
IC50 (second compound 1 µM): < 0.0316 µM
IC50 (second compound 3.16 µM): < 0.0316 µM
IC50 (second compound 10 µM): < 0.0316 µM
viability, T/C [1]: 93.1%
viability, T/C [2]: 79.7%
viability, T/C [3]: 63.9%
viability, T/C [4]: 66.3%
viability, T/C [5]: 32.9%
viability, T/C [6]: 18.6%
viability, T/C [7]: 56.7%
viability, T/C [8]: 67.3%
viability, T/C [9]: 43.1%
viability, T/C [10]: 42.3%
viability, T/C [11]: 29.1%
viability, T/C [12]: 16.4%
viability, T/C [13]: 22.1%
viability, T/C [14]: 19.2%
viability, T/C [15]: 17.1%
viability, T/C [16]: 16.1%
viability, T/C [17]: 12.3%
viability, T/C [18]: 11.4%
viability, T/C [19]: 1.72%
viability, T/C [20]: 1.95%
viability, T/C [21]: 2.1%
viability, T/C [22]: 1.89%
viability, T/C [23]: 1.87%
viability, T/C [24]: 1.22%
viability, T/C [25]: 0.77%
viability, T/C [26]: 0.42%
viability, T/C [27]: 0.98%
viability, T/C [28]: 0.65%
viability, T/C [29]: 0.84%
viability, T/C [30]: 1.13%
viability, T/C [31]: 0.21%
viability, T/C [32]: 0.17%
viability, T/C [33]: 0.25%
viability, T/C [34]: 0.29%
viability, T/C [35]: 0.29%
viability, T/C [36]: 0.25%

O=C(c1cc(Cc2n[nH]c(=O)c3ccccc23)ccc1F)N1CCN(C(=O)C2CC2)CC1 + CN1CCN(c2cc(C(=O)Nc3cc4cc(-c5cnn(C)c5)ccc4cn3)ccn2)CC1
IC50 (second compound 0.0316 µM): > 10 µM
IC50 (second compound 0.1 µM): 0.537 µM
IC50 (second compound 0.316 µM): < 0.0316 µM
IC50 (second compound 1 µM): < 0.0316 µM
IC50 (second compound 3.16 µM): < 0.0316 µM
IC50 (second compound 10 µM): < 0.0316 µM
viability, T/C [1]: 76.5%
viability, T/C [2]: 91.6%
viability, T/C [3]: 71.2%
viability, T/C [4]: 90.3%
viability, T/C [5]: 68.5%
viability, T/C [6]: 64.3%
viability, T/C [7]: 51.5%
viability, T/C [8]: 46.6%
viability, T/C [9]: 49.7%
viability, T/C [10]: 58.5%
viability, T/C [11]: 49.8%
viability, T/C [12]: 43.5%
viability, T/C [13]: 24.3%
viability, T/C [14]: 22.4%
viability, T/C [15]: 20%
viability, T/C [16]: 18%
viability, T/C [17]: 21.4%
viability, T/C [18]: 17.5%
viability, T/C [19]: 2.03%
viability, T/C [20]: 1.38%
viability, T/C [21]: 1.73%
viability, T/C [22]: 1.56%
viability, T/C [23]: 1.8%
viability, T/C [24]: 2%
viability, T/C [25]: 0.89%
viability, T/C [26]: 1.08%
viability, T/C [27]: 0.76%
viability, T/C [28]: 1.05%
viability, T/C [29]: 0.74%
viability, T/C [30]: 0.87%
viability, T/C [31]: 0.16%
viability, T/C [32]: 0.22%
viability, T/C [33]: 0.23%
viability, T/C [34]: 0.22%
viability, T/C [35]: 0.3%
viability, T/C [36]: 0.31%
